Where two headings read alike, the source gives them in different places.

Experimental findings from patent US20090253709A1 (NATIONAL DEFENSE MEDICAL CENTER, priority 2008, published 2009) are described below.

For one data set, the system named is hTERT expression. Put plainly: SEAP assay in hTERT-BJ1-PTERT(3.4)-SEAP cells. It counts as cell-based. Particulars: Homo sapiens, read-out: SEAP (Inhibition μM ± SD). As to the method: A total of 2×10^3 hTERT-BJ1-PTERT(3.4)-SEAP cells were seeded in the 96-well cell culture plate, and incubated with DMEM (GIBCO®)/glucose mixture and Medium 199 (GIBCO®)/10% FBS/1 mM sodium pyruvate (GIBCO®)/4 mM L-glutamine (GIBCO®) mixture at a ratio of 4:1 at 37° C. for 24 hours. When the cells were attached in the bottom of the well, the seriously-diluted compounds with different concentrations ([…]) were treated with the cells for 48 hours, and the PTERT(3.4)-SEAP cells without drug treatment were being the control. After 48 hours of drug treatment, the cultured medium were collected for performing the analysis of SEAP activity. The cells were washed with 1×PBS once immediately, and the MTT assay was performed to compare the compounds with the relative toxicity or the influence to the proliferation and activity.
The cellular medium after the cellular incubation was transferred into the eppondorf tube, and the activity of endogeneous alkaline phosphatase was inactivated at 65° C. for 10 minutes. After centrification, the mixture was obtained by mixing 50 μl of the supernatant with the equal volume of the SEAP buffer. The mixture and the substrate (120 mM of p-nitrophenylphosphate) were preheated at 37° C. for 10 minutes respectively, and the mixture and the substrate were mixed at a ratio of 1:10 and reacted at 37° C. The absorbance of visible light at 405 nm was determined at the appropriate time intervals, and the enzymatic activity of SEAP was represented by the speed of the increasing absorbance at 405 nm.

The subject of a further data set is COLO 205. Put plainly: In vitro cytotoxicity, Development Therapeutics Program. It counts as cell-based. Particulars: COLO 205, colon cancer; 1.0×10^−5 M. The text has this: (§1) From the in vitro experiments of the Development Therapeutics Program of the Cancer Research Institute, the United States, it was known that the synthetic heterocyclic anthraquinone derivatives of the present invention have different inhibition levels to the different cancer cell lines under the concentration of 1.0×10^−5 M. Please refer to Table 2, which is the result of in vitro cytotoxicity of 2,7-disubstituted anthraquinone derivatives of the present invention.

The next data set deals with NCI-H23. Described as above. It counts as cell-based. Particulars: NCI-H23, non-small cell lung cancer; 1.0×10^−5 M.
From the text: as §1

Another data set has as its system MALME-3M. The data set is described as above. Particulars: melanoma, 1.0×10^−5 M. It counts as cell-based.
From the text: as §1

Another data set concerns EKVX. The data set is described as above. It is filed as cell-based. Particulars: non-small cell lung cancer, 1.0×10^−5 M.
From the text: as §1

A further data set deals with CAK1-1. Described as above. Particulars: CAK1-1, renal cancer; 1.0×10^−5 M. It is filed as cell-based.
From the text: as §1

For the next data set, the system named is TK-10. The description is as above. It counts as cell-based. Particulars: TK-10, renal cancer; 1.0×10^−5 M.
From the text: as §1

Another data set has as its system OVCAR-4. The data set is described as above. It is filed as cell-based. Particulars: OVCAR-4, ovarian cancer; 1.0×10^−5 M.
From the text: as §1

In the next data set the test system is SF-295. Described as above. It is filed as cell-based. Particulars: SF-295, CNS cancer; 1.0×10^−5 M.
From the text: as §1

The test system of another data set is HCC-2998. The data set is described as above. Particulars: HCC-2998, colon cancer; 1.0×10^−5 M. It is filed as cell-based.
From the text: as §1

The test system of a further data set is UO-31. The data set is described as above. Particulars: UO-31, renal cancer; 1.0×10^−5 M. It is filed as cell-based.
From the text: as §1

Another data set has as its system SF-539. The description is as above. It counts as cell-based. Particulars: SF-539, CNS cancer; 1.0×10^−5 M.
From the text: as §1

The subject of a further data set is NCl-H460. The description is as above. It is filed as cell-based. Particulars: NCl-H460, non-small cell lung cancer; 1.0×10^−5 M.
From the text: as §1

The next data set relates to SK-MEL-5. Described as above. It counts as cell-based. Particulars: SK-MEL-5, melanoma; 1.0×10^−5 M.
From the text: as §1

The test system of a further data set is HL-60(TB). The data set is described as above. It is filed as cell-based. Particulars: leukemia, 1.0×10^−5 M.
From the text: as §1

Another data set relates to DU-145. Described as above. It counts as cell-based. Particulars: DU-145, prostate cancer; 1.0×10^−5 M.
From the text: as §1

For a further data set, the system named is HT29. The data set is described as above. It counts as cell-based. Particulars: HT29, colon cancer; 1.0×10^−5 M.
From the text: as §1

In a further data set the test system is telomerase. Put plainly: Telomeric repeat amplification protocol (TRAP). It is filed as biochemical. Particulars: compounds at 100, 10 and 1 μM; gel electrophoresis.
A short description of another data set: MTT assay in BJ1 cells. Particulars: human, hTERT-BJ1-PTERT(3.4)-SEAP cells, BJ1, read-out: MTT (Inhibition μM ± SD); for viability at 48 h, 1 µM: compound concentration 1 μM; for viability at 48 h, 10 µM: compound concentration 10 μM; for viability at 48 h, 100 µM: compound concentration 100 μM. It is filed as cell-based. The gist of the method:
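After 48 h drug treatment, cells in DMEM/Medium 199 (4:1) with 10% FBS were given MTT (5 mg/ml stock) in serum-free medium for 4 h at 37 °C, lysed overnight in 20% SDS/50% DMF, and absorbance read at 570 nm.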

Setting [1] is: BJ1, compound concentration 10 μM.
Where [2] appears, read: BJ1, compound concentration 100 μM.

With `CN(C)CC(=O)Nc1ccc2c(c1)C(=O)c1cc(NC(=O)CN(C)C)ccc1C2=O` [Compound 8, 2,7-Bis[2-(dimethylamino)acetamido]anthraquinone], the activity at 1 µM in the data set with hTERT expression is 96 ± 1%. The activity at 10 µM with hTERT expression stood at 44 ± 5%. In addition, the activity at 100 µM with hTERT expression was found to be 3 ± 13%. The “Cellular growth rate (%)” value was −73.57% in the data set on COLO 205; 51.78% with NCI-H23; 96.21% in the data set on MALME-3M; 102.30% with EKVX; 59.26% in the data set with CAK1-1; 73.47% with TK-10. In addition, the “Cellular growth rate (%)” value in the data set on OVCAR-4 is recorded as 45.70%; with SF-295 it was −83.51%; with HCC-2998, −73.97%; in the data set with UO-31, −82.55%; in the data set on SF-539, −3.72%; in the data set on NCl-H460, 5.01%. The “Cellular growth rate (%)” value in the data set with SK-MEL-5 was 82.59%; in the data set on HL-60(TB) it was −64.97%; in the data set with DU-145, 78.68%; with HT29, 11.73%. The “telomerase inhibition effect in TRAP assay” value with telomerase is recorded as “telomerase inhibition effect”. For the same compound, the viability at 48 h, 1 µM in the data set “MTT assay in BJ1 cells” is 96 ± 3%. The viability at 48 h, 10 µM in “MTT assay in BJ1 cells” was determined as 45 ± 1%. Moreover, the viability at 48 h, 100 µM in the data set “MTT assay in BJ1 cells” came out at 39 ± 1%.
As to `CC(C)NCC(=O)Nc1ccc2c(c1)C(=O)c1cc(NC(=O)CNC(C)C)ccc1C2=O` [Compound 13, 2,7-Bis[2-(isopropylamino)acetamido]anthraquinone], the melting point stood at 158 °C. Further, in the data set with hTERT expression, the activity at 1 µM is 79 ± 14%, the activity at 10 µM worked out at 55 ± 19% and the activity at 100 µM is 45 ± 11%. Besides, in the data set with telomerase, the “telomerase inhibition effect in TRAP assay” value is “telomerase inhibition effect”. For the same compound, in “MTT assay in BJ1 cells”, the viability at 48 h, 1 µM was found to be 89 ± 1%; the viability at 48 h, 10 µM is 41 ± 2%; the viability at 48 h, 100 µM is 39 ± 1%.
Regarding `O=C(CCN1CCCC1)Nc1ccc2c(c1)C(=O)c1cc(NC(=O)CCN3CCCC3)ccc1C2=O` [Compound 18, 2,7-Bis[3-(pyrrolidino)propionamido]anthraquinone], the activity at 10 µM with hTERT expression (setting [1]) came to 67 ± 16%. Also, the activity at 100 µM in the data set on hTERT expression (setting [2]) is 109 ± 18%. Also, the “Cellular growth rate (%)” value in the data set on COLO 205 was −29.04%; in the data set on NCI-H23 it was 31.49%; in the data set on MALME-3M, 47.00%; in the data set with EKVX, 58.72%; in the data set with CAK1-1 it was 55.55%; in the data set with TK-10 it was 31.22%. Further, the “Cellular growth rate (%)” value in the data set on OVCAR-4 was 49.82%; in the data set on SF-295 it was 48.62%; in the data set with HCC-2998 it was 19.99%; in the data set with UO-31 it was 5.27%; with SF-539, 33.75%; with NCl-H460, 25.52%. For the same compound, the “Cellular growth rate (%)” value in the data set with SK-MEL-5 turned out to be 56.94%; in the data set with HL-60(TB) it was 85.84%; in the data set on DU-145 it was 29.53%; in the data set with HT29, 19.47%. The viability at 48 h, 1 µM in the data set “MTT assay in BJ1 cells” came out at 82 ± 4%. Moreover, the viability at 48 h, 10 µM in “MTT assay in BJ1 cells” worked out at 68%. Besides, in the data set “MTT assay in BJ1 cells”, the viability at 48 h, 100 µM worked out at 39%.
The compound `CN(C)CCC(=O)Nc1ccc2c(c1)C(=O)c1cc(NC(=O)CCN(C)C)ccc1C2=O` [Compound 20, 2,7-Bis[3-(dimethylamino)propionamido]anthraquinone] yielded a melting point of 196 °C. Also, in the data set on hTERT expression, the activity at 1 µM was determined as 86 ± 2%, the activity at 10 µM is 61 ± 2% and the activity at 100 µM is 38%. Further, in the data set with telomerase, the “telomerase inhibition effect in TRAP assay” value is reported as “telomerase inhibition effect”. In the data set “MTT assay in BJ1 cells”, the viability at 48 h, 1 µM came out at 94 ± 7%; the viability at 48 h, 10 µM was 30 ± 14%; the viability at 48 h, 100 µM came to 22 ± 13%.
`O=C(Nc1ccc2c(c1)C(=O)c1cc(NC(=O)c3ccccc3)ccc1C2=O)c1ccccc1` [Compound 29, 2,7-Bis(benzoamido)anthraquinone] registered a melting point of 224 °C. Besides, the activity at 1 µM in the data set with hTERT expression (BJ1, compound concentration 1 μM) is 89 ± 2%. Moreover, the activity at 10 µM in the data set on hTERT expression (setting [1]) was found to be 72 ± 8%. In the data set on hTERT expression (setting [2]), the activity at 100 µM turned out to be 36 ± 13%. The “telomerase inhibition effect in TRAP assay” value in the data set with telomerase was “telomerase inhibition effect”. Also, in “MTT assay in BJ1 cells”, the viability at 48 h, 1 µM worked out at 92 ± 2%; the viability at 48 h, 10 µM is 85 ± 2%; the viability at 48 h, 100 µM was 97 ± 3%.
Take `O=C1c2ccc(NC(=O)C3CC3)cc2C(=O)c2cc(NC(=O)C3CC3)ccc21` [Compound 32, 2,7-Bis(cyclopropanecarbonamido)anthraquinone]: the melting point was 352 °C. The “Cellular growth rate (%)” value with COLO 205 amounted to 91.92%. The “Cellular growth rate (%)” value with NCI-H23 was 95.85%. Also, in the data set with MALME-3M, the “Cellular growth rate (%)” value is 91.76%. In addition, the “Cellular growth rate (%)” value in the data set with EKVX is given as 94.31%. The “Cellular growth rate (%)” value in the data set with CAK1-1 is recorded as 88.43%. The “Cellular growth rate (%)” value with TK-10 stood at 136.20%. In the data set with OVCAR-4, the “Cellular growth rate (%)” value was determined as 97.54%. In the data set on SF-295, the “Cellular growth rate (%)” value is reported as 86.60%. The “Cellular growth rate (%)” value in the data set with HCC-2998 came to 132.37%. Moreover, the “Cellular growth rate (%)” value with UO-31 came out at 95.55%. Moreover, the “Cellular growth rate (%)” value with SF-539 stood at 93.24%. The “Cellular growth rate (%)” value in the data set with NCl-H460 is given as 89.03%. The “Cellular growth rate (%)” value with SK-MEL-5 is reported as 75.67%. Moreover, in the data set with HL-60(TB), the “Cellular growth rate (%)” value is reported as 62.45%. Besides, the “Cellular growth rate (%)” value in the data set on DU-145 is listed as 98.83%. The “Cellular growth rate (%)” value in the data set on HT29 amounted to 106.26%. In “MTT assay in BJ1 cells”, the viability at 48 h, 1 µM came to 60 ± 6%; the viability at 48 h, 10 µM came out at 44 ± 10%; the viability at 48 h, 100 µM stood at 47 ± 2%.

The melting point is the temperature of the solid-liquid transition.
